# From article PMC2998338 (Neuropharmacology, 2010)
# Where “and” joins values, the source holds several entries; their conditions need not be identical. Equal values may be shown once. Read-outs that look alike come from different tables or passages of the source.
# Assays:
# α7 nAChRs = α7 nAChRs (Rattus norvegicus, UniProt Q05941); assay: [125I]IodoMLA binding assay, rat cerebral cortex; conditions: read-out: Ki, [125I]MLA binding sites, 70 pM [125I]iodoMLA
# male ICR mice [1] = assay: Tail-flick test, compound alone; type: in vivo; conditions: for ED50 Tail-flick, percent effect at the individual dose: tested 15 min after injection; for change of tail-flick latencies by the compound itself: highest dose tested
# male ICR mice [2] = assay: Tail-flick test, antagonism of nicotine-induced antinociception; type: in vivo; conditions: s.c., 15 min before nicotine 2.5 mg/kg, tested 5 min after nicotine; (confidence limits)
# male ICR mice [3] = assay: Hot-plate test, compound alone; type: in vivo; conditions: tested 15 min after injection
# male ICR mice [4] = assay: Hot-plate test, antagonism of nicotine-induced antinociception; type: in vivo; conditions: at 10 mg/kg s.c., 15 min before nicotine
# male ICR mice [5] = assay: Body temperature; type: in vivo
# male ICR mice [6] = assay: Body temperature, antagonism of nicotine-induced hypothermia; type: in vivo; conditions: for AD50 Body temperature, percent effect at the individual dose: 15 min before nicotine, tested 30 min after nicotine; for block of nicotine-induced hypothermia: mice
# neuronal nAChRs = assay: Whole-cell patch-clamp, time course of inhibition; type: cell-based; conditions: co-application with ACh following pre-exposure
# rat α7 nAChRs = rat α7 nAChRs (Rattus norvegicus, UniProt Q05941); conditions: for α7 nH: Hill coefficient, mean
# [7] = biological target: human α4β2 neuronal nAChRs (Homo sapiens, UniProt P17787+P43681); conditions: for α4β2 nH: Hill coefficient, mean
# rat α3β4 nAChRs = rat α3β4 nAChRs (Rattus norvegicus, UniProt P04757+P12392); conditions: for α3β4 nH: Hill coefficient, mean
# NMDA receptors = conditions: read-out: IC50, NMDA receptors; ref MacDonald et al., 1990; Morris et al., 2005; cited from earlier work
# [8] = holding potential −100 to +60 mV, n=3
# rat α7 nAChRs, sequence (Q05941 23-502): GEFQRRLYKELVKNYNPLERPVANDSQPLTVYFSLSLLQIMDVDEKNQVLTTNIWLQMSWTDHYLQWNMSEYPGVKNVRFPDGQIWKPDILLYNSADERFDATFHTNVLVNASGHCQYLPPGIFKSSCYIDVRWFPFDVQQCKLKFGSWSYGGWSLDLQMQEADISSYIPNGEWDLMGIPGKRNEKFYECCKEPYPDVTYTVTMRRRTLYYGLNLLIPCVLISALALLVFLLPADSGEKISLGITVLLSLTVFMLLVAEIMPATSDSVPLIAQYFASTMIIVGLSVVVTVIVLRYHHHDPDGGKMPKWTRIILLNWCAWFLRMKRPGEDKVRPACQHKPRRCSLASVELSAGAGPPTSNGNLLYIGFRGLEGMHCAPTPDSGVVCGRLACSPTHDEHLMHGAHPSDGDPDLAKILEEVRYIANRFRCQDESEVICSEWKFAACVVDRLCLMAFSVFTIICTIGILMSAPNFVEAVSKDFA
# human α4β2 neuronal nAChRs, sequence (P43681 29-627 limits assumed): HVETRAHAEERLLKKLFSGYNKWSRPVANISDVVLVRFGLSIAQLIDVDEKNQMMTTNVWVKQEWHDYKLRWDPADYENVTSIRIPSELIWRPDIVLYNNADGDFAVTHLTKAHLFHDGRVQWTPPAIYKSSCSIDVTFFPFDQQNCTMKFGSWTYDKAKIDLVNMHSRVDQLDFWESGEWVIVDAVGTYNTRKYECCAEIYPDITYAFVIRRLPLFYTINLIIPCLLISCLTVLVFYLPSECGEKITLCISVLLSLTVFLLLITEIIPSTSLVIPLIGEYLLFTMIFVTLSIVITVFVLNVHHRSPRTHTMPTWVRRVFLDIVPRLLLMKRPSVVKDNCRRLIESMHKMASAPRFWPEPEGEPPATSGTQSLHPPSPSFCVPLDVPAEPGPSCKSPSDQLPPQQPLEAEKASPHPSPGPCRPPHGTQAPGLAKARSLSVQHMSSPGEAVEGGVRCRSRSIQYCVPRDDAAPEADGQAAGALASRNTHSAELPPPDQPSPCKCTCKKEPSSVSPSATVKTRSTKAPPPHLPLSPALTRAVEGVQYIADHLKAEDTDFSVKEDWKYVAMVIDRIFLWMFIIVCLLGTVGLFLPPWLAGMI
# human α4β2 neuronal nAChRs, sequence (P17787 26-502): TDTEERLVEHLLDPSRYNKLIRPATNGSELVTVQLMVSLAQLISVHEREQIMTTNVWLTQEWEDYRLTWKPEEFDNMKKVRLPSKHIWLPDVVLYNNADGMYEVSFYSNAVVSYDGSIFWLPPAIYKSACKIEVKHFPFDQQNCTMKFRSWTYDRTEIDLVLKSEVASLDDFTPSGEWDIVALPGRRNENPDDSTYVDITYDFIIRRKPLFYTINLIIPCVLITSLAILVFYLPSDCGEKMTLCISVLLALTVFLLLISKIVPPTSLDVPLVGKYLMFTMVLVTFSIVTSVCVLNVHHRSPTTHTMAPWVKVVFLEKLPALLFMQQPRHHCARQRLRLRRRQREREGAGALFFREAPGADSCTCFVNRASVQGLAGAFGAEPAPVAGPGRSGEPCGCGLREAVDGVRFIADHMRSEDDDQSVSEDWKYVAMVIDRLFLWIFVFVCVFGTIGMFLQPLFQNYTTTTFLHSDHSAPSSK
# rat α3β4 nAChRs, sequence (P04757 26-499): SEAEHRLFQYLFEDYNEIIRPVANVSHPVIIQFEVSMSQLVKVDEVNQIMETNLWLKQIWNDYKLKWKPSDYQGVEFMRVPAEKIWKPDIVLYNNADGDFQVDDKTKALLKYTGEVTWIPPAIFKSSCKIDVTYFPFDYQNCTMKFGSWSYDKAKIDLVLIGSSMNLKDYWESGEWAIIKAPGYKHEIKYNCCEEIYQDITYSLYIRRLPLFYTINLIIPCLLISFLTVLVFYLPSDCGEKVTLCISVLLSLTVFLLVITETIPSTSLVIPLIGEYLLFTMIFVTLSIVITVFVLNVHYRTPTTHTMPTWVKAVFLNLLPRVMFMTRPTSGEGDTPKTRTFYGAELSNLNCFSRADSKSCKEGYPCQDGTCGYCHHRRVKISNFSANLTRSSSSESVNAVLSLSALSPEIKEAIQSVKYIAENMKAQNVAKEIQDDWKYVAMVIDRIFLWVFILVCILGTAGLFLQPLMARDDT
# rat α3β4 nAChRs, sequence (P12392 21-495): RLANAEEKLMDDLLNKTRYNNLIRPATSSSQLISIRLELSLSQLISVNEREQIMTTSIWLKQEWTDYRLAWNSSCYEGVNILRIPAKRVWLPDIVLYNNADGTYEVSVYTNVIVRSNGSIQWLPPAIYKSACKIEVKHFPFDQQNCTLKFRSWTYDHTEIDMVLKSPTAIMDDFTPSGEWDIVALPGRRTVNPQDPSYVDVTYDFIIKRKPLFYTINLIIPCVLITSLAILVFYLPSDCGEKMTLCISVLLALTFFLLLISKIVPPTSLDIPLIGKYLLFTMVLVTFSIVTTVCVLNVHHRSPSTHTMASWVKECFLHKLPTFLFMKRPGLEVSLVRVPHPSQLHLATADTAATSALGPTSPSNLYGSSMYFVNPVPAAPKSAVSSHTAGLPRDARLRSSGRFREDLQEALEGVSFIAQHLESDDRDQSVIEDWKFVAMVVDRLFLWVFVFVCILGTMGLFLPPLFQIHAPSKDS
# α7 nAChRs, sequence (Q05941 23-502): as the sequence (Q05941 23-502) above
structure (smiles),measurement,setting,value
"CN(C)c1ccc2c(c1)CC1CC(Cc3ccccc3)N(C)C21 (stereo not drawn) [HDMP, 1,2,3,3a,4,8b-hexahydro-2-benzyl-6-N,N-dimethylamino-1-methylindeno[1,2,-b]pyrrole]",Ki,α7 nAChRs,> 10 µM
same,"ED50 Tail-flick, percent effect at the individual dose",male ICR mice [1]; at 10 mg/kg s.c.,2%@10
same,change of tail-flick latencies by the compound itself,male ICR mice [1],did not significantly change
same,AD50 Tail-flick,male ICR mice [2],0.008 (0.004–0.015) mg/kg
same,"ED50 Hot-Plate, percent effect at the individual dose",male ICR mice [3]; at 10 mg/kg s.c.,8%@10
same,"AD50 Hot-Plate, percent effect (inhibition) at the individual dose",male ICR mice [4],20%@10
same,"ED50 Hypothermia, percent effect at the individual dose",male ICR mice [5]; at 10 mg/kg s.c.,0%@10
same,"AD50 Body temperature, percent effect at the individual dose",male ICR mice [6]; at 10 mg/kg s.c.,0%@10
same,block of nicotine-induced hypothermia,male ICR mice [6],failed to block
same,time in which the inhibitory effect develops,neuronal nAChRs,40 to 60 s
same,"inhibition of whole-cell currents, α7","rat α7 nAChRs; 0.1 μM, −80 mV, example cell",55%
same,α7 nH,rat α7 nAChRs,0.73
same,fold more potent than PCP in inhibition of α7 nAChRs,rat α7 nAChRs; based on IC50 values 1.25 and 0.07 μM,18 fold
same,"voltage-dependence of inhibitory effect, α7",rat α7 nAChRs; [8],voltage-independent
same,fold more potent at α7 than at α3β4 nAChRs,rat α7 nAChRs; ratio of patch-clamp IC50s,414 fold
same,fold more potent at α7 than at α4β2 nAChRs,rat α7 nAChRs; ratio of patch-clamp IC50s,357 fold
same,"effect on whole-cell currents, α4β2","[7]; 0.1 μM, −80 mV, example cell",no effect
same,α4β2 nH,[7],1.15
same,"voltage-dependence of inhibitory effect, α4β2",[7]; [8],voltage-independent
same,IC50,[7]; read-out: α4β2 IC50,25.1 µM
same,"effect on whole-cell currents, α3β4","rat α3β4 nAChRs; 0.1 μM, −80 mV, example cell",no effect
same,α3β4 nH,rat α3β4 nAChRs,1.06
same,fold less potent than PCP in inhibition of α3β4 nAChR function,rat α3β4 nAChRs; based on IC50s 28.98 and 6.35 μM,4.6 fold
same,"voltage-dependence of inhibitory effect, α3β4",rat α3β4 nAChRs; [8],voltage-independent
same,IC50,rat α3β4 nAChRs; read-out: α3β4 IC50,29 µM
"c1ccc(C2(N3CCCCC3)CCCCC2)cc1 [PCP, phencyclidine, reference compound]","ED50 Tail-flick, percent effect at the individual dose",male ICR mice [1]; at 5 mg/kg s.c.,6%@5
same,change of tail-flick latencies by the compound itself,male ICR mice [1],did not significantly change
same,AD50 Tail-flick,male ICR mice [2],1.1 (0.87–1.30) mg/kg
same,"ED50 Hot-Plate, percent effect at the individual dose",male ICR mice [3]; at 5 mg/kg s.c.,5%@5
same,"ED50 Hypothermia, percent effect at the individual dose",male ICR mice [5]; at 5 mg/kg s.c.,5%@5
same,"AD50 Body temperature, percent effect at the individual dose",male ICR mice [6]; at 5 mg/kg s.c.,0%@5
same,block of nicotine-induced hypothermia,male ICR mice [6],failed to block
same,IC50,NMDA receptors,~1 µM
same,α7 nH,rat α7 nAChRs,0.97
same,fold more potent at α7 than at α4β2 nAChRs,rat α7 nAChRs; ratio of patch-clamp IC50s,23 fold
same,α4β2 nH,[7],1.4
same,IC50,[7]; α4β2 IC50,29 µM
same,α3β4 nH,rat α3β4 nAChRs,0.65
same,IC50,rat α3β4 nAChRs; α3β4 IC50,6.4 µM and 6.35 µM
